Source: patent publication US11324750B2, “Compositions and methods for the treatment of severe acute respiratory syndrome coronavirus 2 (SARS-CoV-2) infection” (Children's Hospital Medical Center, priority 2020, dated 2022)

System: severe COVID-19 patients
Experiment: Randomized controlled trial, safety: adverse events up to day 28
Type: in vivo, human
Conditions: for ALT increase, % patients / ALT increase, n patients / AST increase, % patients / AST increase, n patients / Acute heart failure, n patients / Alkaline phosphatase increase, % patients / Alkaline phosphatase increase, n patients / Anemia, % patients / Anemia, n patients / Chemical laboratory abnormalities, % patients / Chemical laboratory abnormalities, n patients / Decreased appetite, % patients / Decreased appetite, n patients / Dizziness, % patients / Dizziness, n patients / Headache, % patients / Headache, n patients / Hematological adverse events, % patients / Hematological adverse events, n patients / Hypercholesterolemia, % patients / Hypercholesterolemia, n patients / Hypertension, % patients / Hypertension, n patients / Hypertriglyceridemia, n patients / Hypoalbuminemia, % patients / Hypoalbuminemia, n patients / Hypocalcemia, % patients / Hypocalcemia, n patients / Hypochloremia, % patients / Hypochloremia, n patients / Hypokalemia, % patients / Hypokalemia, n patients / Lymphocytopenia, % patients / Lymphocytopenia, n patients / Nausea, % patients / Nausea, n patients / Neutrocytopenia, % patients / Neutrocytopenia, n patients / Rash, % patients / Rash, n patients / Secondary Infection, n patients / Sepsis, n patients / Serious adverse events, n patients / Shock, n patients / Thrombocytopenia, % patients / Thrombocytopenia, n patients / γ-GT increase, % patients / γ-GT increase, n patients / Adverse events, % patients / Adverse events, n patients: N = 20, through day 28; for Adverse events, % patients / Adverse events, n patients: line above headache, dizziness, rash, nausea, decreased appetite, hypertension
Description: As of the effective date of this application, no therapeutics have yet been proven effective for the treatment of severe COVID-19 with cytokine storm. Ruxolitinib, a potent and selective oral inhibitor of Janus kinase (JAK) 1 and JAK2, was proposed by Applicant to be beneficial in the treatment of cytokine storm. Applicant conducted a prospective, multicenter, single-blind, randomized controlled trial involving participants diagnosed as severe COVID-19 patients. The enrolled patients were randomly separated into two groups with a 1:1 allocation by an independent statistician in blocks of 4 for all 3 sites. Study number and treatment allocation codes were provided in sequentially numbered opaque envelops. Intervention group is treated with ongoing oral intake 5 mg of ruxolitinib (Jakafi®, Novartis Pharma Stein AG, Switzerland) twice a day based on the standard-of-care (SoC); the control group is treated with placebo plus SoC. The primary endpoint was the incidence of serious adverse events occurring up to 28 days and the time to clinical improvement. The secondary endpoint is the overall mortality at D28. This trial is registered at www.chictr.org.cn as ChiCTR-OPN-2000029580.
Procedures. The first day of randomization was designated as D0. The second and the fourth day after randomization were designated D1 and D3, respectively. Dx referred to the day when either disease progressed according to the Chinese management guideline for COVID-19 (version 5.0) or defined as a one-category increase on the seven-category scale. Dend was the day before discharge. The enrolled patients were randomly separated into two groups: the treatment group (group B) received oral intake of ruxolitinib (Jakafi®, Novartis Pharma Stein AG, Switzerland) 5 mg twice a day plus standard-of-care (SoC); the control group (group A) is treated with placebo twice a day with SoC. The SoC included supplemental oxygen, noninvasive and invasive ventilation, corticosteroid, antibiotic agents, vasopressor support, renal-replacement therapy, and extracorporeal membrane oxygenation (ECMO) etc. Safety was monitored daily by two independent senior physicians from the trial center. Adverse events were classified according to the National Cancer Institute Common Terminology Criteria for Adverse Events, version 5.0. Non-contrast enhanced chest CT examinations were performed on D0 and followed-up at least once within two weeks. Additional chest CT may be performed if the condition deteriorated. All CT images were reviewed using Picture archiving and communication system (PACS). The CT features of improvement were evaluated by two independent senior radiologists blindly, which should at least meet one of the following criteria: decreased presence of ground-glass opacities (GGO), decreased lung opacification, reduced density of consolidation or decreased pleural effusion with existence of fibrous stripes^29. Peripheral blood was taken from patients on D1, D3, Dx and/or Dend for the determination of viral load by one-step RT-ddPCR, SARS-CoV-2-specific IgM and IgG by paramagnetic particle chemiluminescent immunoassay (CLIA) and cytokines measurements by Luminex FlEXMAP 3D system. Every participant's data is filled in one case record form (CRF). All the CRF tables were inputted and saved by researchers into an electronic data capture system (EDCS) and validated by a trial staff, including demographics, medical history, daily clinical findings, oximetric measurements and laboratory data involving complete blood count, serum biochemical parameters and high sensitivity C-reactive protein (hsCRP) etc.
Outcomes. The primary safety endpoint was the incidence of serious adverse events occurring up to 28 days. Safety outcomes included adverse events that occurred during treatment, serious adverse events and premature discontinuation of treatment. […]

[1] = Grade 3-4, listed as ruxolitinib

## N#CC[C@H](C1CCCC1)n1cc(-c2ncnc3[nH]ccc23)cn1 [Ruxolitinib, (3R)-3-cyclopentyl-3-[4-(7H-pyrrolo[2,3-d]pyrimidin-4-yl)pyrazol-1-yl]propanenitrile]
Any Grade
  ALT increase, % patients: (35.0%)
  ALT increase, n patients: 7
  AST increase, % patients: (15.0%)
  AST increase, n patients: 3
  Acute heart failure, n patients: 0
  Alkaline phosphatase increase, % patients: (10.0%)
  Alkaline phosphatase increase, n patients: 2
  Anemia, % patients: (55.0%)
  Anemia, n patients: 11
  Chemical laboratory abnormalities, % patients: (50.0%)
  Chemical laboratory abnormalities, n patients: 10
  Decreased appetite, % patients: (5.0%)
  Decreased appetite, n patients: 1
  Dizziness, % patients: (10.0%)
  Dizziness, n patients: 2
  Headache, % patients: (5.0%)
  Headache, n patients: 1
  Hematological adverse events, % patients: (65.0%)
  Hematological adverse events, n patients: 13
  Hypercholesterolemia, % patients: (20.0%)
  Hypercholesterolemia, n patients: 4
  Hypertension, % patients: (5.0%)
  Hypertension, n patients: 1
  Hypertriglyceridemia, n patients: 0
  Hypoalbuminemia, % patients: (5.0%)
  Hypoalbuminemia, n patients: 1
  Hypocalcemia, % patients: (5.0%)
  Hypocalcemia, n patients: 1
  Hypochloremia, % patients: (5.0%)
  Hypochloremia, n patients: 1
  Hypokalemia, % patients: (5.0%)
  Hypokalemia, n patients: 1
  Lymphocytopenia, % patients: (5.0%)
  Lymphocytopenia, n patients: 1
  Nausea, % patients: (10.0%)
  Nausea, n patients: 2
  Neutrocytopenia, % patients: (5.0%)
  Neutrocytopenia, n patients: 1
  Rash, % patients: (10.0%)
  Rash, n patients: 2
  Secondary Infection, n patients: 0
  Sepsis, n patients: 0
  Serious adverse events, n patients: 0
  Shock, n patients: 0
  Thrombocytopenia, % patients: (20.0%)
  Thrombocytopenia, n patients: 4
  γ-GT increase, % patients: (10.0%)
  γ-GT increase, n patients: 2
  Adverse events, % patients: (35.0%)
  Adverse events, n patients: 7
Grade 1-2
  ALT increase, % patients: (35.0%)
  ALT increase, n patients: 7
  AST increase, % patients: (15.0%)
  AST increase, n patients: 3
  Acute heart failure, n patients: 0
  Alkaline phosphatase increase, % patients: (10.0%)
  Alkaline phosphatase increase, n patients: 2
  Anemia, % patients: (55.0%)
  Anemia, n patients: 11
  Chemical laboratory abnormalities, % patients: (50.0%)
  Chemical laboratory abnormalities, n patients: 10
  Decreased appetite, % patients: (5.0%)
  Decreased appetite, n patients: 1
  Dizziness, % patients: (10.0%)
  Dizziness, n patients: 2
  Headache, % patients: (5.0%)
  Headache, n patients: 1
  Hematological adverse events, % patients: (60.0%)
  Hematological adverse events, n patients: 12
  Hypercholesterolemia, % patients: (20.0%)
  Hypercholesterolemia, n patients: 4
  Hypertension, n patients: 0
  Hypertriglyceridemia, n patients: 0
  Hypoalbuminemia, % patients: (5.0%)
  Hypoalbuminemia, n patients: 1
  Hypocalcemia, % patients: (5.0%)
  Hypocalcemia, n patients: 1
  Hypochloremia, % patients: (5.0%)
  Hypochloremia, n patients: 1
  Hypokalemia, % patients: (5.0%)
  Hypokalemia, n patients: 1
  Lymphocytopenia, % patients: (5.0%)
  Lymphocytopenia, n patients: 1
  Nausea, % patients: (10.0%)
  Nausea, n patients: 2
  Neutrocytopenia, % patients: (5.0%)
  Neutrocytopenia, n patients: 1
  Rash, % patients: (10.0%)
  Rash, n patients: 2
  Secondary Infection, n patients: 0
  Sepsis, n patients: 0
  Serious adverse events, n patients: 0
  Shock, n patients: 0
  Thrombocytopenia, % patients: (20.0%)
  Thrombocytopenia, n patients: 4
  γ-GT increase, % patients: (10.0%)
  γ-GT increase, n patients: 2
  Adverse events, % patients: (35.0%)
  Adverse events, n patients: 7
Grade 3-4
  ALT increase, n patients: 0
  AST increase, n patients: 0
  Acute heart failure, n patients: 0
  Alkaline phosphatase increase, n patients: 0
  Anemia, n patients: 0
  Chemical laboratory abnormalities, n patients: 0
  Decreased appetite, n patients: 0
  Dizziness, n patients: 0
  Headache, n patients: 0
  Hematological adverse events, % patients: 5.0%
  Hematological adverse events, n patients: 1
  Hypercholesterolemia, n patients: 0
  Hypertension, % patients: 5.0%
  Hypertension, n patients: 1
  Hypertriglyceridemia, n patients: 0
  Hypoalbuminemia, n patients: 0
  Hypocalcemia, n patients: 0
  Hypochloremia, n patients: 0
  Hypokalemia, n patients: 0
  Lymphocytopenia, % patients: 5.0%
  Lymphocytopenia, n patients: 1
  Nausea, n patients: 0
  Neutrocytopenia, n patients: 0
  Rash, n patients: 0
  Secondary Infection, n patients: 0
  Sepsis, n patients: 0
  Serious adverse events, n patients: 0
  Shock, n patients: 0
  Thrombocytopenia, n patients: 0
  γ-GT increase, n patients: 0
  Adverse events, n patients: 0
[1]
  Hematological adverse events, n patients: 2
  Hypertension, n patients: One
All ruxolitinib recipients, lymphocytopenia and hypertension, transient and reversible
  Adverse events at grade 3-4, number of events: two
From randomization to D28, primary safety endpoint
  Patients who reported adverse events, %: 80%
Primary safety endpoint
  Unexpected adverse events: No significant unexpected adverse events
Ruxolitinib with SoC treatment
  Tolerability: well tolerated
